Measurements published in patent publication US20230088717A1, “NEW IMMUNOSTIMULATORS AND USE THEREOF IN IMMUNOTHERAPY” (NANTES UNIVERSITÉ, priority 2020, published 2023).
Read-outs that look alike come from different tables or passages of the source.

Columns and labels:
iNKT cells [1] = assay: iNKT cell activation: cytokine secretion (ELISA) after co-culture with glycolipid-loaded CD1d-transfected HEK293 or HeLa cells; assay type: cell-based, human; conditions: for LogEC50 IFN-γ / LogEC50 IL-2 / LogEC50 IL-13 / EC50: 6 h co-culture; for Delta LogEC50 IFN-γ / Delta LogEC50 IL-2 / Delta LogEC50 IL-13: KRN7000 vs 6-PEG3-NH2-GalCer; for EC50: Homo sapiens, iNKT, 6 h
Description: (§1) Classically, CD1d expressing cells are incubated overnight in presence or in the absence of the compound to be assessed, allowing loading on the CD1d molecule. Then, CD1d cells are co-incubated with iNKTs. Six hours of co-culture are sufficient to be able to detect most of the cytokine release (such as IFN-γ, IL-13 and/or IL-2) in the supernatant. Various time of incubation, up to 48H, can be performed depending of the kinetic of some late cytokines (such as IL-10). The quantity or concentration of at least one cytokine is thus measured in the supernatant after an incubation time of from 6 hours to 48 hours. An increased quantity or concentration of at least one cytokine in the presence of the assessed compound by comparison to in its absence means that said compound is a iKNT stimulator.
(§2) To analyse ability of 6-PEG3-NHR-GalCer 2 and 6-Mal-PEGn-GalCer 3 to activate iNKTs, several types of presenting cells were used, such as HEK293 or HeLa cells transfected to express CD1d molecule on their membrane. Non-transfected cells were also used as negative control “at first glance” since presentation of glycolipids to iNKT cells is known to be dependent on CD1d.
(§3) These cells were then used as antigen presenting cells (APC) to compare the iNKT cell activation potency of the canonical α-GalCer (KRN7000) ligand to that of the analogue 6″-modified with an aminoPEG linking arm 6-PEG3-NH2-GalCer 2a. APC were loaded with glycolipids after co-incubation at various concentrations overnight. Next day, cells were washed and co-cultured with iNKTs (2 APC for 1 iNKT). After 6 hours, supernatants were collected, and cytokines secretions (IFN-γ and IL-2 for Th1 panel and IL-13 for Th2 panel) was measured by ELISA (FIGS. 2 and 3)
(§4) 6-PEG3-NHR-GalCer analogues of 6-PEG3-NH2-GalCer 2a were evaluated on transfected CD1d and non-CD1d Hela and HEK293 cells for secretion of INF-γ and IL13 stimulation (see FIGS. 10 and 11).

iNKT cells in PBMC = assay: iNKT phenotyping: expansion of iNKT cells in PBMC, CD8+/CD4+; assay type: cell-based, human; conditions: PBMC cultured ten days with high dose of glycolipid (FIG. 8)
Description: Comparative study was run to establish either a CD4 or CD8 orientation of the immune response can be induced using 6-PEG3-NH2-GalCer 2a vs KRN7000 (see FIG. 8). PBMC were cultured in presence of an high dose of KRN or 6-PEG3-NH2-GalCer 2a, after ten days, phenotype of iNKTs was analysed by Flow Cytometry.

iNKT cells [2] = assay: iNKT cell activation: cytokine secretion after co-culture with glycolipid-loaded non-transfected (non-CD1d) tumor cells; assay type: cell-based, human; conditions: for secretion of cytokines: non-CD1d Hela and HEK293 cells
Description: as §1, §2, §3
To confirm this discovery, various other colon, lung, embryonic kidney, cervical cancer cells lines were screened by RT-PCR to define those that express small levels of CD1d and to confirm their ability to self-present the new potent iNKT agonist (see Table 6).
as §4

CD1d = target: T1, CD1d (Homo sapiens, UniProt P15813); assay: CD1d-dependency of iNKT activation: cytokine secretion in presence of anti-CD1d antibody; assay type: cell-based
T1 construct: endogenous in cells; host or cells: HEK293 (non-transfected) and HEK293-CD1d (transfected to express CD1d)
Description: It was then checked whether iNKT cells activation might be provided by a very low expression of CD1d on the proper non-CD1d tumor cells that cannot be detected by flow cytometry. To this aim, the same activation experiments were performed but in presence of an anti-CD1d antibody. HEK293 cells and HEK293-CD1d were loaded with 6-PEG3-NH2-GalCer a2 as described previously. Before co-culture with iNKTs cells, loaded presenting cells were co-incubated with the anti-CD1d antibody for 1 hours, iNKTs were added directly in suspension and co-cultured 6 hours before cytokine analysis in supernatant (ELISA). If activation signal was provided by presentation of the modified glycolipid through CD1d, it was expected to observe a blockage, or at least a decrease, of cytokine secretion after blocking the signal with the anti-CD1d antibody.

HeLa-CD1d cells = assay: Cytotoxicity induced by iNKTs on HeLa-CD1d cells (flow cytometry); assay type: cell-based; conditions: HeLa CD1d transfected cells, 24 hours co-culture (FIG. 7)
Description: Moreover, 6-PEG3-NH2-GalCer 2a is not only one of a strongest activator of iNKTs cells known for cytokine secretions, but that he is also able to induce a better iNKT cytotoxicity effect than KRN7000. iNKT were co-cultured with HeLa CD1 d transfected cells for 24 hours in presence of various concentration of glycolipids, then, mortality of target HeLa-CD1d cells was analysed by Flow Cytometry.

HeLa-CD1d spheroid = assay: Cytotoxicity induced by iNKTs on HeLa-CD1d 3D spheroid model; assay type: cell-based; conditions: 72 hours, preliminary data (FIG. 9B)
[3] = HEK293 (embryonic kidney), non transfected, as presenting cells
[4] = HeLa (cervix), non transfected, as presenting cells
[5] = Meso13 (mesotheliome) as presenting cells
[6] = Meso34 (mesotheliome) as presenting cells
[7] = Meso225 (mesotheliome) as presenting cells
[8] = SW1116 (colon) as presenting cells

T1 sequence (P15813 20-335): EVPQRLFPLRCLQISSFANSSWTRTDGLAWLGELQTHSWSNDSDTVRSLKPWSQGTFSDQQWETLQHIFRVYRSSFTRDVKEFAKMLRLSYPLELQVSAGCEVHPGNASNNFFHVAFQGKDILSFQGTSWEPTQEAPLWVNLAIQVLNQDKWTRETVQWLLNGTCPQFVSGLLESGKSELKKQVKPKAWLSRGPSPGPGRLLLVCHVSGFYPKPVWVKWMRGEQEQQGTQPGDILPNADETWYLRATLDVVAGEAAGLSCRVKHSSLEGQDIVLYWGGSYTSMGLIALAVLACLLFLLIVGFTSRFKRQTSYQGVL
T1 sequence (P61769 21-119 partner): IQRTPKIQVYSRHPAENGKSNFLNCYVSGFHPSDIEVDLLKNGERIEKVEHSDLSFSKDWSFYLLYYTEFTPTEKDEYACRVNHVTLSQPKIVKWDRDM

## CCCCCCCCCCCCCCCCCCCCCCCCCC(=O)N[C@@H](CO[C@H]1OC(COC(=O)NCCOCCOCCOCCNC(=O)CCOCCOCCOCCOCCOCCOCCNC(=O)CCN2C(=O)C=CC2=O)[C@H](O)C(O)[C@@H]1O)[C@H](O)[C@H](O)CCCCCCCCCCCCCC (some centres unmarked) [6-Mal-PEG6-GalCer 3a]
iNKT cells [1]; general statement, presenting cells not specified at the place
  iNKT activation potency (cytokine release) relative to KRN7000: ~10 fold

## CCCCCCCCCCCCCCCCCCCCCCCCCC(=O)N[C@@H](CO[C@H]1O[C@H](CO)[C@H](O)[C@H](O)[C@H]1O)[C@H](O)[C@H](O)CCCCCCCCCCCCCC [KRN7000, reference compound]
iNKT cells in PBMC
  CD8+ / CD4+ orientation of the iNKT response: seems to not distinguish CD4+ to CD8+ cells stimulation
iNKT cells [1]; HEK293-CD1d presenting cells
  LogEC50 IFN-γ: −8.447
  LogEC50 IL-2: −8.680
  LogEC50 IL-13: −7.956
iNKT cells [1]; HeLa-CD1d presenting cells
  LogEC50 IFN-γ: −8.653
  LogEC50 IL-2: −9.315
  LogEC50 IL-13: −7.841
iNKT cells [2]; [3]
  IFN-γ secretion 10^−7M: Low
iNKT cells [2]; [4]
  IFN-γ secretion 10^−7M: Low
iNKT cells [2]; [5]
  IFN-γ secretion 10^−7M: Low
iNKT cells [2]; [6]
  IFN-γ secretion 10^−7M: Low
iNKT cells [2]; [7]
  IFN-γ secretion 10^−7M: Low
iNKT cells [2]; [8]
  IFN-γ secretion 10^−7M: Low
iNKT cells [2]
  secretion of cytokines: very poorly active or ineffective

## CCCCCCCCCCCCCCCCCCCCCCCCCC(=O)N[C@@H](CO[C@H]1OC(COC(=O)NCCOCCOCCOCCN)[C@H](O)C(O)[C@@H]1O)[C@H](O)[C@H](O)CCCCCCCCCCCCCC (some centres unmarked) [6-PEG3-NH2-GalCer 2a]
iNKT cells in PBMC
  CD8+ / CD4+ orientation of the iNKT response: induces a higher cytotoxic CD8+ response from PBMC cells than KRN7000
iNKT cells [1]; CD1d-transfected HEK293 / HeLa cells
  cytokine secretion / iNKT activation potency relative to KRN7000: ~100 fold
iNKT cells [1]; HEK293-CD1d
  Delta LogEC50 IFN-γ: 2.333
  Delta LogEC50 IL-2: 1.55
  Delta LogEC50 IL-13: 2.534
iNKT cells [1]; HeLa-CD1d
  Delta LogEC50 IFN-γ: 1.877
  Delta LogEC50 IL-2: 1.495
  Delta LogEC50 IL-13: 2.089
iNKT cells [1]; HEK293-CD1d presenting cells, read-out: LogEC50 IFN-γ (converted)
  EC50: 0.0166 nM
iNKT cells [1]; HEK293-CD1d presenting cells, read-out: LogEC50 IL-2 (converted)
  EC50: 0.0589 nM
iNKT cells [1]; HEK293-CD1d presenting cells, read-out: LogEC50 IL-13 (converted)
  EC50: 0.0324 nM
iNKT cells [1]; HeLa-CD1d presenting cells, read-out: LogEC50 IFN-γ (converted)
  EC50: 0.0295 nM
iNKT cells [1]; HeLa-CD1d presenting cells, read-out: LogEC50 IL-2 (converted)
  EC50: 0.0155 nM
iNKT cells [1]; HeLa-CD1d presenting cells, read-out: LogEC50 IL-13 (converted)
  EC50: 0.117 nM
CD1d; CD1d-HEK293 positive cells (FIG. 5A)
  inhibition of cytokine (IL-2) secretion by anti-CD1d antibody: only an incomplete inhibition
CD1d; non transfected (non CD1d) HEK293 cells (FIG. 5B)
  inhibition of cytokine (IL-2) secretion by anti-CD1d antibody: almost completely eliminated
HeLa-CD1d cells
  efficiency to induce iNKT cytotoxicity relative to KRN7000: ≥ 10 fold
HeLa-CD1d spheroid
  induction of cell death compared with KRN7000: more efficient than KRN7000 to induce cell death
iNKT cells [2]; HCT116 (colon) as presenting cells
  IFN-γ secretion 10^−7M: Low
iNKT cells [2]; [3]
  IFN-γ secretion 10^−7M: High
iNKT cells [2]; [4]
  IFN-γ secretion 10^−7M: High
iNKT cells [2]; [5]
  IFN-γ secretion 10^−7M: High
iNKT cells [2]; [6]
  IFN-γ secretion 10^−7M: High
iNKT cells [2]; [7]
  IFN-γ secretion 10^−7M: High
iNKT cells [2]; [8]
  IFN-γ secretion 10^−7M: High
iNKT cells [2]
  secretion of cytokines: significant dose response secretion of cytokines
